Test results taken from paper PMC10180076, “Novel Biologically Active N-Substituted Benzimidazole Derived Schiff Bases: Design, Synthesis, and Biological Evaluation” (Molecules, 2023).
Read-outs that look alike come from different tables or passages of the source.

How the values were obtained:
[1] = tested on: LN-229, glioblastoma; test: Proliferation assay (MTS, 72 h), LN-229; assay type: cell-based, human
Text: (§1) Human cancer cells used in this manuscript, namely Capan-1, HCT-116, NCI-H460, LN-229, HL-60, K-562, and Z-138, were acquired from the American Type Culture Collection (ATCC, Manassas, VA, USA), while the DND-41 cell line was purchased from the Deutsche Sammlung von Mikroorganismen und Zellkulturen (DSMZ Leibniz-Institut, Braunschweig, Germany). Culture media were purchased from Gibco Life Technologies, Merelbeke, Belgium, and supplemented with 10% fetal bovine serum (HyClone, Cytiva, Marlborough, MA, USA). Vincristine and docetaxel, which were used as the reference inhibitors, were purchased from Selleckchem (Munich, Germany). Stock solutions were prepared in DMSO.
(§2) Adherent cell lines LN-229, HCT-116, and NCI-H460 and Capan-1 cells were seeded at a density between 500 and 1500 cells per well, in 384-well tissue culture plates (Greiner, Kremsmünster, Austria). After overnight incubation, the cells were treated with seven different concentrations of the test compounds, ranging from 100 to 0.006 µM.
(§3) Suspension cell lines HL-60, K-562, Z-138, and DND-41 were seeded at densities ranging from 2500 to 5500 cells per well in 384-well culture plates containing the test compounds at the same concentration points. The cells were incubated for 72 h with the compounds and were then analyzed using the CellTiter 96® AQueous One Solution Cell Proliferation Assay (MTS) reagent (Promega, Madison, WI, USA) according to the manufacturer’s instructions. […] The compounds were tested in two independent experiments.

[2] = tested on: Capan-1, pancreatic adenocarcinoma; test: Proliferation assay (MTS, 72 h), Capan-1; assay type: cell-based, human
Text: as §1, §2, §3

[3] = tested on: HCT-116, colorectal carcinoma; test: Proliferation assay (MTS, 72 h), HCT-116; assay type: cell-based, human
Text: as §1, §2, §3

[4] = tested on: NCI-H460, lung carcinoma; test: Proliferation assay (MTS, 72 h), NCI-H460; assay type: cell-based, human
Text: as §1, §2, §3

[5] = tested on: DND-41, acute lymphoblastic leukemia; test: Proliferation assay (MTS, 72 h), DND-41; assay type: cell-based, human
Text: as §1, §2, §3

[6] = tested on: HL-60, acute myeloid leukemia; test: Proliferation assay (MTS, 72 h), HL-60; assay type: cell-based, human
Text: as §1, §2, §3

[7] = tested on: K-562, chronic myeloid leukemia; test: Proliferation assay (MTS, 72 h), K-562; assay type: cell-based, human
Text: as §1, §2, §3

[8] = tested on: Z-138, non-Hodgkin lymphoma; test: Proliferation assay (MTS, 72 h), Z-138; assay type: cell-based, human
Text: as §1, §2, §3

[9] = tested on: herpes simplex virus-1 (HSV-1 KOS); test: Antiviral CPE reduction assay, HSV-1 KOS in HEL 299; assay type: cell-based; details: Human alphaherpesvirus 1; HEL 299 cells, 100 CCID50, MTS
[10] = in vitro; details: human
[11] = tested on: human coronavirus HCoV-229E; test: organism not typed; assay type: cell-based; details: HEL 299 cells, 100 CCID50, MTS; read-out: Antiviral Activity (EC50/μM) HCoV 229E HEL 299
[12] = tested on: human coronavirus HCoV-OC43; test: microbe, parasite or virus in culture; assay type: cell-based; details: Betacoronavirus 1, OC43; HEL 299 cells, 100 CCID50, MTS; read-out: Antiviral Activity (EC50/μM) HCoV OC43 HEL 299
[13] = tested on: human coronavirus HCoV-NL63; test: Antiviral CPE reduction assay, HCoV-NL63 in Huh-7; assay type: cell-based; details: Huh-7 cells, 100 CCID50, MTS
[14] = tested on: influenza A/H1N1 (A/Ned/378/05); test: Antiviral CPE reduction assay, influenza A/H1N1 in MDCK; assay type: cell-based; details: Influenza A virus, MDCK cells, 100 CCID50, MTS
[15] = tested on: influenza A/H3N2 (A/HK/7/87); test: Antiviral CPE reduction assay, influenza A/H3N2 in MDCK; assay type: cell-based; details: Influenza A virus, MDCK cells, 100 CCID50, MTS
[16] = tested on: influenza B (B/Ned/537/05); test: Antiviral CPE reduction assay, influenza B in MDCK; assay type: cell-based; details: Influenza B virus; MDCK cells, 100 CCID50, MTS
[17] = tested on: respiratory syncytial virus A (Long); test: Antiviral CPE reduction assay, RSV A in HEL 299; assay type: cell-based; details: human respiratory syncytial virus; HEL 299 cells, 100 CCID50, MTS
[18] = tested on: yellow fever virus (YFV 17D); test: microbe, parasite or virus in culture; assay type: cell-based; details: Huh-7, read-out: Antiviral Activity (EC50/μM) YFV 17D Huh-7
[19] = tested on: Zika virus (Mr776); test: Antiviral CPE reduction assay, Zika virus in Huh-7; assay type: cell-based; details: Huh-7 cells, 100 CCID50, MTS
[20] = tested on: sindbis virus; test: Antiviral CPE reduction assay, Sindbis virus in Huh-7; assay type: cell-based; details: Huh-7 cells, 100 CCID50, MTS
[21] = in vitro; details: human; remark: listed apart in the source
[22] = in vitro; details: dog

Compound | melting point [°C] | IC50 ([1]; Homo sapiens, LN-229) [µM] | IC50 ([2]; Homo sapiens, CAPAN-1) [µM] | IC50 ([3]; Homo sapiens, HCT-116) [µM] | IC50 ([4]; Homo sapiens, NCI-H460) [µM] | IC50 ([5]; Homo sapiens, DND41) [µM] | IC50 ([6]; Homo sapiens, HL-60) [µM] | IC50 ([7]; Homo sapiens, K562) [µM] | IC50 ([8]; Homo sapiens, Z-138) [µM] | further results
2-amino-1-phenylbenzimidazole [Compound 19] |  |  |  |  |  |  |  |  |  | IC50 [1]: > 100 µM; IC50 [2]: > 100 µM; IC50 [3]: > 100 µM; IC50 [4]: > 100 µM; IC50 [5]: 98.3 µM; IC50 [6]: > 100 µM; IC50 [7]: > 100 µM; IC50 [8]: > 100 µM
2-amino-6-cyano-1-isobutylbenzimidazole [Compound 21] |  |  |  |  |  |  |  |  |  | IC50 [1]: > 100 µM; IC50 [2]: > 100 µM; IC50 [3]: > 100 µM; IC50 [4]: 69.2 µM; IC50 [5]: > 100 µM; IC50 [6]: > 100 µM; IC50 [7]: > 100 µM; IC50 [8]: > 100 µM
O=c1[nH]c(=O)n([C@H]2C[C@H](O)[C@@H](CO)O2)cc1/C=C/Br [BVDU, brivudine, reference compound] |  |  |  |  |  |  |  |  |  | EC50 [9]: 0.05 µM; CC50 [10]: > 100 µM
CC(C)Cn1c(N)nc2ccccc21 [Compound 17, 2-amino-1-isobutylbenzimidazole] |  |  |  |  |  |  |  |  |  | EC50 [11]: 78.9 µM; EC50 [12]: > 100 µM; EC50 [13]: > 100 µM; EC50 [14]: > 100 µM; EC50 [15]: > 100 µM; EC50 [16]: > 100 µM; EC50 [17]: > 100 µM; EC50 [9]: > 100 µM; EC50 [18]: > 100 µM; EC50 [19]: > 100 µM; EC50 [20]: > 100 µM; CC50 [10]: > 100 µM; CC50 [21]: > 100 µM; CC50 [22]: > 100 µM
CCCCCCn1c(N)nc2ccccc21 [Compound 20, 2-amino-1-hexylbenzimidazole] | 245 to 250 |  |  |  |  |  |  |  |  | 
CCCCCCn1c(N)nc2ccc(C#N)cc21 [Compound 24, 2-Amino-6-cyano-1-hexylbenzimidazole] | 215 to 220 |  |  |  |  |  |  |  |  | 
CC(C)Cn1c(/N=C/c2ccc(N(C)C)cc2)nc2ccccc21 [Compound 28, (E)-4-(((1-Isobutyl-1H-benzo[d]imidazol-2-yl)imino)methyl)-N,N-dimethylaniline] | 277 to 279 | > 100 | > 100 | 15.2 | > 100 | > 100 | > 100 | > 100 | > 100 | 
CCN(CC)c1ccc(/C=N/c2nc3ccccc3n2CC(C)C)c(O)c1 [Compound 30, (E)-5-(Diethylamino)-2-(((1-isobutyl-1H-benzo[d]imidazol-2-yl)imino)methyl)phenol] |  | > 100 | > 100 | > 100 | > 100 | > 100 | 70.4 | > 100 | > 100 | 
CN(C)c1ccc(/C=N/c2nc3ccccc3n2C)cc1 [Compound 33, (E)-N,N-Dimethyl-4-(((1-methyl-1H-benzo[d]imidazol-2-yl)imino)methyl)aniline] | 186 to 188 | > 100 | > 100 | > 100 | > 100 | > 100 | > 100 | > 100 | > 100 | 
CCN(CC)c1ccc(/C=N/c2nc3ccccc3n2C)c(O)c1 [Compound 35, (E)-5-(Diethylamino)-2-(((1-methyl-1H-benzo[d]imidazol-2-yl)imino)methyl)phenol] |  | > 100 | > 100 | > 100 | > 100 | > 100 | > 100 | > 100 | > 100 | 
